This note sets out measurements from doi:10.1101/2024.02.23.581731v1 (biorxiv, 2024).

The target of one experiment is T1, r5-HT3AR (Rattus norvegicus, UniProt P35563, I207V).
T1 sequence (P35563 24-483 I207V): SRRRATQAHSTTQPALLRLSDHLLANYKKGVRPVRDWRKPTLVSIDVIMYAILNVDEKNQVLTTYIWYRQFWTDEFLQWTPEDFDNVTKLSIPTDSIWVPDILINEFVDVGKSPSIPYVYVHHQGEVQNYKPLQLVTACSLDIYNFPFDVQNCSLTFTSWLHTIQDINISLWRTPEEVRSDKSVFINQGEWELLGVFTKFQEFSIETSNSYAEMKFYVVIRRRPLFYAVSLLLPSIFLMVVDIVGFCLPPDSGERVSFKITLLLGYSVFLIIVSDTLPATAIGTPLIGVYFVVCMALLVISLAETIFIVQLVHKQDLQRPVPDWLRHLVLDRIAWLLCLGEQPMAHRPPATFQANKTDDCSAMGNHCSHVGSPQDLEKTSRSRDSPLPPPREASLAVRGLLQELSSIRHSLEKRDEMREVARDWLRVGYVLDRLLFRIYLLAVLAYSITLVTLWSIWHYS
Nature of the experiment: FLIPR Blue membrane potential assay, inhibition of 5-HT response. The class given is cell-based.

Experiment [1] concerns the target T2, h5-HT3AR (Homo sapiens, UniProt P46098, R200K).
T2 sequence (P46098 24-478 R200K): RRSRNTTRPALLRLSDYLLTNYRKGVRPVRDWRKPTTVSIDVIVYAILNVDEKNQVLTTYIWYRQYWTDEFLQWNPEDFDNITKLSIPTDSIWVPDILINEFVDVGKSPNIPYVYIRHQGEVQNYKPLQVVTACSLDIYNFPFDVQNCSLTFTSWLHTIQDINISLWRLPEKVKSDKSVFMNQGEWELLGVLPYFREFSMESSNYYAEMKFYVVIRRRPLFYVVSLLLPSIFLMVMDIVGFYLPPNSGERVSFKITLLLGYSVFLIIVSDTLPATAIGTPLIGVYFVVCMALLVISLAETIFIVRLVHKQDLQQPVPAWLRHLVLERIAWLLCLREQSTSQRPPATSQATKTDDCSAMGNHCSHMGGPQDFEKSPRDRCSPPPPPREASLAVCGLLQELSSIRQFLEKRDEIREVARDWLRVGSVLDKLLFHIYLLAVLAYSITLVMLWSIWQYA
The experiment is described as above. It counts as cell-based.

Experiment [2] addresses T3, h5-HT3AR (Homo sapiens, UniProt P46098, V202I).
T3 sequence (P46098 24-478 V202I): T2 sequence (P46098 24-478 R200K) with K177R, V179I
Described as above. The class given is cell-based.

Experiment [3] deals with T4, h5-HT3AR (Homo sapiens, UniProt P46098, M223D).
T4 sequence (P46098 24-478 M223D): T2 sequence (P46098 24-478 R200K) with K177R, M200D
The experiment is described as above. It counts as cell-based.

For experiment [4], the target named is T5, h5-HT3AR (Homo sapiens, UniProt P46098).
T5 sequence (P46098 24-478): T2 sequence (P46098 24-478 R200K) with K177R
Nature of the experiment: [3H]-GR65630 displacement, HEK-293 membranes. The class given is binding.

For experiment [5], the target named is T5, h5-HT3AR. Nature of the experiment: FLIPR Blue membrane potential assay, inhibition of 5-HT response. It counts as cell-based.

Where a chain is given by its changes, count along the chain named.

What is called IC50 is the concentration at which inhibition is half-maximal. Low readings indicate higher potency, high ones lower potency. For orientation: Ki means a dissociation constant, usually derived from enzyme kinetics or from competition with a known ligand. A low value points to a stronger hold on the target. As to `Cc1ccc(Sc2ccccc2N2CCNCC2)c(C)c1` [vortioxetine], the IC50 was determined as 10 nM against r5-HT3AR; 94 nM at h5-HT3AR [1]; 37 nM against h5-HT3AR [2]; 375 nM at h5-HT3AR [3]; 20 nM at h5-HT3AR [5]. Also, the Ki at h5-HT3AR [4] was 24 nM.
